US5527703A (Merck & Co., Inc., priority 1994, dated 1996)
Entries after “also recorded” stand apart in the source; their conditions may differ. Blank lines part the entries; values can stand above or below the compound they belong to.

Columns and labels:
GluCl α&β [1] = molecular target: T1, GluCl α&β (Caenorhabditis elegans, UniProt G5EBR3+Q17328); assay: Antagonist block of ligand-activated current in oocytes injected with GluClα and GluClβ RNA; format: cell-based, C. elegans; conditions: for inhibition at 100 µM: read-out: % Block; for % Block: blocker 100 μM
T1 construct: the full-length open reading frame of the GluCl cDNA encoding the GluClα (52,550 kDa) and GluClβ (49,900kDa) subunits; expressed in transfected cells; host or cells: Xenopus laevis oocytes injected with in vitro RNA
T1 sequence (G5EBR3 21-461): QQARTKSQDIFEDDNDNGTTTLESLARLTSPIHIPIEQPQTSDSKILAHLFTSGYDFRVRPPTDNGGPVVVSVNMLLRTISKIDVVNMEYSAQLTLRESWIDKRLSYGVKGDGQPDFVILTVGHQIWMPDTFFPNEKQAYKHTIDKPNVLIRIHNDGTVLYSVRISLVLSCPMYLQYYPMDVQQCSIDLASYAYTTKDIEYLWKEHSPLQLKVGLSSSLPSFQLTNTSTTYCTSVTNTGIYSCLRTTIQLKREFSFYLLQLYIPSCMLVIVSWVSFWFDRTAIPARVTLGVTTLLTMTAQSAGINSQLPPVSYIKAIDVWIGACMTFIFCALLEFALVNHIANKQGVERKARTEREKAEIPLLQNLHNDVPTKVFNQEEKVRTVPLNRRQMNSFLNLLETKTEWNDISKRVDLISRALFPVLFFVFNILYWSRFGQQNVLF
T1 sequence (Q17328 23-434): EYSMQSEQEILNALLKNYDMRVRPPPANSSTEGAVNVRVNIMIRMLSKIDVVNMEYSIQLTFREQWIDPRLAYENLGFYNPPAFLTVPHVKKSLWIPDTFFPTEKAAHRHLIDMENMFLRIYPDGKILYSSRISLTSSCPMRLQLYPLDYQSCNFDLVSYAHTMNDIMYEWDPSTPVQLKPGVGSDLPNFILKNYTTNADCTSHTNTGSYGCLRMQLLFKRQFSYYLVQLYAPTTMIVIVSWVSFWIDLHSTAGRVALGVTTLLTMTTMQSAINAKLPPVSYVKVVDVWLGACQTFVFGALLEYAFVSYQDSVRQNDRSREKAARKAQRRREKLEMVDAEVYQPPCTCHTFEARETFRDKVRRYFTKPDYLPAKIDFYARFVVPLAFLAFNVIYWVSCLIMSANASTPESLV
Experimental: (§1) Xenopus laevis oocytes were prepared and injected using standard methods previously described and known in the art [Arena, J. P., Liu. K. K., Paress, P. S. & Cully. D. F. Mol. Pharmacol. 40, 368-374 (1991 ); Arena, J. P., Liu, K. K., Paress, P. S., Schaeffer, J. M. & Cully, D. F. Mol. Brain Res. 15, 339-348 (1992)]. Adult female Xenopus laevis were anesthetized with 0.17% tricaine methanesulfonate and the ovaries were surgically removed and placed in a dish consisting of (mM): NaCl 1 82.5, KCl 2. MgCl2 1, CaCl2 1.8, HEPES 5 adjusted to pH 7.5 with NaOH (OR-2). Ovarian lobes were broken open, rinsed several times, and gently shaken in OR-2 containing 0.2% collagenase (Sigma, Type 1A) for 2-5 hours. When approximately 50% of the follicular layers were removed, Stage V and VI oocytes were selected and placed in media consisting of (mM): NaCl 86, KCl 2, MgCl2 1, CaCl2 1.8, HEPES 5, Na pyruvate 2.5, theophylline 0.5, gentamicin 0.1 adjusted to pH 7.5 with NaOH (ND-96) for 24-48 hours before injection. Oocytes were injected with 50-70 nl of poly(A^+) RNA (1 mg/ml) or 50 nl of GluClα (0.1-100 ng) and/or GluClβ (0.1-100 ng). Control oocytes were injected with 50 nl of water. Oocytes were incubated for 2-10 days in ND-96 before recording. Incubations and collagenase digestion were carried out at 18° C.
(§2) Recordings were made at room temperature 2-10 days after injection. Unless otherwise indicated recordings were made in standard frog saline consisting of (mM): NaCl 115, KCl 2, MgCl2 1, CaCl2 1.8, HEPES 10 adjusted to pH 7.5 with NaOH. Oocytes were voltage-clamped using a standard two microelectrode amplifier (Dagan 8500 or TEV-200, Minneapolis,Minn.). Pipettes were filled with 3M KCl and had resistances between 0.5-3.0 M.OMEGA.. A plexiglass recording chamber (volume 200 μl) was constantly perfused at a rate of 10 ml/min. The recording chamber was connected to ground with a Ag/AgCl electrode directly, or through a 3M KCl agar bridge when extracellular chloride was varied. For low chloride solutions NaCl was replaced with equimolar concentrations of sodium isethionic acid. For low sodium solutions NaCl was replaced with equimolar KCl or choline Cl. Data were acquired and analyzed using PCLAMP with a TL-1 interface (Axon Instruments, Foster City, Calif.). Membrane current at a holding potential of -80 mV was recorded. The amplitude of drug-sensitive current was determined by subtracting the holding current at -80 mV from the peak current obtained in the presence of drug. Data were filtered at 30 Hz and sampled at 16.6 Hz. Current/voltage relationships (I/V) and reversal potentials (Erev) were determined using a 1-3 sec voltage ramp over the voltage range of -110 to +80 mV. For the ramps, data were filtered at 0.3-3 kHz and sampled at 160 Hz. Current in drug free solution was subtracted from current in the presence of drug to obtain drug-sensitive current/voltage relationships.
Oocytes were injected simultaneously with GluClα and GluClβ RNA
(25 pg each). n=at least four for each group. a- Data are expressed as %
acid. e- Block was considered zero if response in the presence of blocker
was ± 3% of control. f- (-)-Bicuculline methochloride g.

GluCl α&β [2] = molecular target: T1, GluCl α&β; assay: Agonist activation of current in Xenopus oocytes injected with GluClα and GluClβ RNA (two-microelectrode voltage clamp); format: cell-based, C. elegans
Experimental: as §1, §2
(§3) Electrophysiological properties were examined in oocytes injected with in vitro RNA from pGluClα and pGluClβ (FIG. 5).
Several ligand-gated ion channel agonists and antagonists were tested on oocytes injected with GluCl α&β (Table 1). […] 255, 449-464 (1976); Arena, J. P., Liu, K. K., Paress, P. S., Schaeffer, J. M. & Cully, D. F. Mol. Brain Res. 15, 339-348 (1992); Lea, T. J. & Usherwood, P. N. R. Comp. Gen. Pharmacol. 4, 351-363 (1973)].

GluClβ = molecular target: T2, GluClβ (Caenorhabditis elegans, UniProt Q17328); assay: Activation of current in Xenopus oocytes expressing homomeric GluClβ (voltage clamp); format: cell-based, C. elegans
T2 construct: the full-length open reading frame of the GluCl cDNA encoding the GluClα (52,550 kDa) and GluClβ (49,900kDa) subunits; expressed in transfected cells; host or cells: Xenopus laevis oocytes injected with in vitro RNA
T2 sequence (Q17328 23-434): T1 sequence (Q17328 23-434)
Experimental: as §1, §2, §3

arthropod H-receptors = conditions: cited from earlier work
GluClα [3] = molecular target: T3, GluClα (Caenorhabditis elegans, UniProt G5EBR3); assay: Activation of current in Xenopus oocytes expressing homomeric GluClα (voltage clamp); format: cell-based, C. elegans; parameters: the full-length open reading frame of the GluCl cDNA encoding the GluClα (52,550 kDa) and GluClβ (49,900kDa) subunits; expressed in transfected cells; host or cells: Xenopus laevis oocytes injected with in vitro RNA
T3 sequence (G5EBR3 21-461): T1 sequence (G5EBR3 21-461)
Experimental: as §1, §2, §3

[4] = test system: glutamate- and avermectin-sensitive chloride channel (C. elegans poly(A)+ RNA); conditions: cited from earlier work
GluCl α&β [5] = molecular target: T1, GluCl α&β; assay: 3H-ivermectin equilibrium binding to GluCl α&β RNA injected oocytes; parameters: species or system C. elegans; conditions: read-out: affinity of 3H-ivermectin binding; oocytes expressing GluCl α&β
Experimental: (§4) Oocytes injected with GluClα and GluClβ in vitro RNA were used in ^3 H-ivermectin and ^3 H-glutamate binding assays. GluClα (1 ng) or GluClβ RNA (1 ng) were injected into oocytes individually, or coinjected (0.5 ng each) and 2 days later the oocytes were disrupted with a dounce homogenizer and yolk proteins removed using standard methods known in the art. Equilibrium ligand binding assays were performed using conventional procedures. […] Oocytes expressing GluCl α&β are used to measure the affinity of binding of othere compounds and their ability to displace ^3 H-ivermectin and ^3 H-glutamate binding.

GluClα [6] = molecular target: T3, GluClα; assay: 3H-ivermectin equilibrium binding to GluClα RNA injected oocytes; parameters: the full-length open reading frame of the GluCl cDNA encoding the GluClα (52,550 kDa) and GluClβ (49,900kDa) subunits; expressed in transfected cells; host or cells: Xenopus laevis oocytes injected with in vitro RNA; species or system C. elegans; conditions: read-out: affinity of 3H-ivermectin binding; oocytes expressing GluClα
Experimental: as §4

GluClα [7] = molecular target: T3, GluClα; assay: Permeability (reversal potential) of GluClα channels in oocytes; format: cell-based, C. elegans; parameters: homomeric channel; voltage clamp reversal potentials; conditions: Erev in Na isothionate
Experimental: Xenopus laevis oocytes were prepared and injected using standard methods previously described and known in the art [Arena, J. P., Liu. K. K., Paress, P. S. & Cully. D. F. Mol. Pharmacol. 40, 368-374 (1991 ); Arena, J. P., Liu, K. K., Paress, P. S., Schaeffer, J. M. & Cully, D. F. Mol. Brain Res. 15, 339-348 (1992)]. Adult female Xenopus laevis were anesthetized with 0.17% tricaine methanesulfonate and the ovaries were surgically removed and placed in a dish consisting of (mM): NaCl 1 82.5, KCl 2. MgCl2 1, CaCl2 1.8, HEPES 5 adjusted to pH 7.5 with NaOH (OR-2). Ovarian lobes were broken open, rinsed several times, and gently shaken in OR-2 containing 0.2% collagenase (Sigma, Type 1A) for 2-5 hours. […]
Recordings were made at room temperature 2-10 days after injection. […] Data were acquired and analyzed using PCLAMP with a TL-1 interface (Axon Instruments, Foster City, Calif.). Membrane current at a holding potential of -80 mV was recorded. The amplitude of drug-sensitive current was determined by subtracting the holding current at -80 mV from the peak current obtained in the presence of drug. […] Current/voltage relationships (I/V) and reversal potentials (Erev) were determined using a 1-3 sec voltage ramp over the voltage range of -110 to +80 mV. […]

GluClα [8] = molecular target: T3, GluClα; assay: 3H-glutamate equilibrium binding to GluClα injected oocyte membranes; parameters: the full-length open reading frame of the GluCl cDNA encoding the GluClα (52,550 kDa) and GluClβ (49,900kDa) subunits; expressed in transfected cells; host or cells: Xenopus laevis oocytes injected with in vitro RNA; species or system C. elegans; conditions: membrane preparations from GluClα-injected oocytes
Experimental: as §4

Compound: C[N+]1(C)CCc2cc3c(cc2C1C1OC(=O)c2c1ccc1c2OCO1)OCO3 (single isomer, unassigned; (-)) [Bicuculline, (-)-Bicuculline methochloride]
- inhibition at 100 µM (GluCl α&β [1]): 0%

- inhibition at 10 µM (GluCl α&β [1]): 0%
Compound: N#Cc1cc2[nH]c(=O)c(=O)[nH]c2cc1[N+](=O)[O-] [CNQX, 6-cyano-7-nitroquino-xaline-2,3-dione]

- inhibition at 200 µM (GluCl α&β [1]; blocker 200 μM, ligand IVMPO4 1 μM): 60 ± 4%
Compound: O=C(O)c1ccccc1Nc1cccc(C(F)(F)F)c1 [Flufenamic Acid]
- block of glutamate- and IVMPO4-sensitive currents (GluCl α&β [1]): blocked; also recorded: low affinity block

Compound: NCCCC(=O)O [GABA]
- activation of current / sensitivity of coexpressed GluCl α&β (GluCl α&β [2]): insensitivity
- sensitivity of GluClβ homomeric channels (GluClβ): insensitive
- effect on arthropod H-receptors (arthropod H-receptors): not activated
- sensitivity of GluClα homomeric channels (GluClα [3]): insensitive

Compound: NCC(=O)O [Glycine]
- activation of current / sensitivity of coexpressed GluCl α&β (GluCl α&β [2]): insensitivity
- sensitivity of GluClβ homomeric channels (GluClβ): insensitive
- sensitivity of GluClα homomeric channels (GluClα [3]): insensitive

Compound: NC(C(=O)O)c1cc(=O)[nH]o1 (stereo not shown) [Ibotenate]
- activation of current / sensitivity of coexpressed GluCl α&β (GluCl α&β [2]): direct activation of current
- Emax at 500 µM (GluCl α&β [2]; read-out: % of Glutamate 10 mM): 18 ± 2%
- effect on glutamate- and avermectin-sensitive current [4]: activated
- effect on arthropod H-receptors (arthropod H-receptors): activated

Compound: O=C1C[C@@H]2OCC=C3CN4CC[C@]56c7ccccc7N1[C@H]5[C@H]2[C@H]3C[C@H]46 [Strychnine]
- inhibition at 100 µM (GluCl α&β [1]): 0%

Compound: CC[C@H](C)[C@H]1O[C@]2(CC[C@@H]1C)C[C@@H]1C[C@@H](C/C=C(\C)[C@@H](O[C@H]3C[C@H](OC)[C@@H](O[C@H]4C[C@H](OC)[C@@H](O)[C@H](C)O4)[C@H](C)O3)[C@@H](C)/C=C/C=C3\CO[C@@H]4[C@H](O)C(C)=C[C@@H](C(=O)O1)[C@]34O)O2 [^3 H-ivermectin, 22,23-dihydroavermectin B1a]
- Kd (GluCl α&β [5]): ~0.2 nM
- Kd (GluClα [6]): ~0.2 nM

- permeability ratio to chloride (GluClα [7]): 0.2
Compound: O=S(=O)(O)CCO [isothionate]

Compound: Picrotoxin
- block of glutamate- and IVMPO4-sensitive currents (GluCl α&β [1]): blocked; also recorded: low affinity block
- % Block (GluCl α&β [1]; ligand IVMPO4 1 μM): 61 ± 2%
- % Block (GluCl α&β [1]; ligand glutamate 1 mM, zero if within ± 3% of control): 68 ± 4%
- effect on glutamate- and avermectin-sensitive current [4]: blocked with low affinity
- effect on arthropod H-receptors (arthropod H-receptors): blocked with low affinity

Compound: ^3 H-glutamate
- Specific 3H-glutamate binding (GluClα [8]): observed
